From paper PMC6553790 (PLoS Pathogens, 2019)
“Also recorded” adds a separate entry of the source.

System: P. falciparum Cam3.II lines
Experiment: Isobologram analyses (fixed-ratio drug combinations)
Type: cell-based, Plasmodium falciparum
Experimental: Assays were performed with fixed ratios of drug combinations (1:0, 4:1, 2:1, 1:1, 1:2, 1:4, and 0:1), tested in duplicate. Combinations were prepared from 16×IC50 drug stocks and tested across a range of two-fold dilutions. Assays were conducted with asynchronous cultures exposed for 72 hr or with tightly synchronized rings or trophozoites (tested at 0–3 hr or 24–27 hr post-invasion, respectively) exposed for 3 hr. Post-pulse drug washouts were conducted as described above for in vitro determination of IC50 levels. IC50 values were derived for each compound tested alone, and fractional IC50 (FIC50) values were determined for each compound tested in combination (FIC50 = […]) and plotted for each drug combination. For each combination, the mean of the sums of FIC50 values at each combination (mean ΣFIC50) was also calculated and the results illustrated using heat maps.

[1] = combined with WLL, Asynchronous, 72 hr, Cam3.II K13C580Y
[2] = combined with WLL, Asynchronous, 72 hr, Cam3.II K13WT
[3] = combined with WLW, Asynchronous, 72 hr, Cam3.II K13C580Y
[4] = combined with WLW, Asynchronous, 72 hr, Cam3.II K13WT
[5] = across asynchronous parasites, early rings and trophozoites
[6] = combined with WLL, Rings, 3 hr exposure, Cam3.II K13C580Y
[7] = combined with WLL, Rings, 3 hr exposure, Cam3.II K13WT
[8] = combined with WLL, Trophozoites, 3 hr exposure, Cam3.II K13C580Y
[9] = combined with WLL, Trophozoites, 3 hr exposure, Cam3.II K13WT
[10] = combined with WLW, Rings, 3 hr exposure, Cam3.II K13C580Y
[11] = combined with WLW, Rings, 3 hr exposure, Cam3.II K13WT
[12] = combined with WLW, Trophozoites, 3 hr exposure, Cam3.II K13C580Y
[13] = combined with WLW, Trophozoites, 3 hr exposure, Cam3.II K13WT
[14] = asynchronous parasites, early rings and trophozoites, Cam3.II K13WT and K13C580Y
[15] = asynchronous parasites, rings and trophozoites (S1 Fig)

| Compound | Interaction with WLL or WLW (asynchronous parasites, 72 hr) | Mean of the sums of FIC50 (mean ΣFIC50) [1] | Mean of the sums of FIC50 (mean ΣFIC50) [2] | Mean of the sums of FIC50 (mean ΣFIC50) [3] | Mean of the sums of FIC50 (mean ΣFIC50) [4] | Interaction with WLL or WLW [5] | Mean of the sums of FIC50 (mean ΣFIC50) [6] | Mean of the sums of FIC50 (mean ΣFIC50) [7] | Mean of the sums of FIC50 (mean ΣFIC50) [8] | Mean of the sums of FIC50 (mean ΣFIC50) [9] | Mean of the sums of FIC50 (mean ΣFIC50) [10] | Mean of the sums of FIC50 (mean ΣFIC50) [11] | Mean of the sums of FIC50 (mean ΣFIC50) [12] | Mean of the sums of FIC50 (mean ΣFIC50) [13] | Interaction with WLW (isobologram) [14] | Interaction with WLL (isobologram) (early rings and trophozoites) | Interaction with WLL or WLW (early rings and trophozoites) | Interaction with WLL (isobologram) [15] | Interaction with WLW (isobologram) (asynchronous parasites and trophozoites) | Interaction with WLW (isobologram) (early ring stage) |
| --- | --- | --- | --- | --- | --- | --- | --- | --- | --- | --- | --- | --- | --- | --- | --- | --- | --- | --- | --- | --- |
| CC(=O)N1CCN(c2ccc(CN(C(=O)/C=C/c3ccc(C(C)(C)C)cc3)[C@@H](Cc3ccccc3)C(=O)N3CCN(Cc4ccc(C#N)cc4)CC3)cc2)CC1 [ACT-451840] | antagonism | 1.27 | 1.34 | 1.14 | 1.16 | – | – | – | – | – | – | – | – | – | – | – | – | – | – | – |
| Clc1ccc2c(N3CCN(CCCN4CCN(c5ccnc6cc(Cl)ccc56)CC4)CC3)ccnc2c1 [PPQ, piperaquine] | – | 1.37 | 1.52 | 1.33 | 1.44 | Additive to antagonistic; also recorded: antagonism observed in asynchronous parasites and early rings was attenuated in trophozoites | 1.41 | 1.46 | 1.23 | 1.32 | 1.30 | 1.20 | 1.20 | 1.14 | – | – | – | – | – | – |
| C=CC(=O)N1C/C(=C\c2ccc([N+](=O)[O-])cc2)C(=O)/C(=C/c2ccc([N+](=O)[O-])cc2)C1 [b-AP15] | – | 1.11 | 1.05 | 0.78 | 0.86 | – | 0.77 | 0.80 | 0.66 | 0.67 | 0.35 | 0.34 | 0.52 | 0.60 | synergy | Synergy | – | – | – | – |
| CCCCN(CCCC)CC(O)c1cc(Cl)cc2c1-c1ccc(Cl)cc1/C2=C/c1ccc(Cl)cc1 (stereo not drawn) [LMF, lumefantrine] | mild antagonism | 1.24 | 1.42 | 1.07 | 1.32 | Additive to antagonistic | 1.13 | 1.23 | 1.24 | 1.12 | 0.98 | 0.95 | 1.01 | 1.16 | – | – | largely additive | – | – | – |
| C[C@@H]1C[C@@H]([C@H](O)CC2CC(=O)NC(=O)C2)C(=O)[C@@H](C)C1 [CHX, cycloheximide] | antagonism | 1.40 | 1.44 | 1.37 | 1.29 | – | – | – | – | – | – | – | – | – | – | – | – | – | – | – |
| O=C(NCCN1CCCC1)c1cc(-c2ccc(CN3CCOCC3)cc2)nc2ccc(F)cc12 [DDD107498] | antagonism | 1.60 | 1.65 | 1.44 | 1.28 | – | – | – | – | – | – | – | – | – | – | – | – | – | – | – |
| C[C@H]1Cc2c([nH]c3cc(Cl)c(F)cc23)[C@@]2(N1)C(=O)Nc1ccc(Cl)cc12 [NITD609] | antagonism | 1.67 | 1.58 | 1.44 | 1.39 | – | – | – | – | – | – | – | – | – | – | – | – | – | – | – |
| Cc1cc(Nc2ccc(S(F)(F)(F)(F)F)cc2)n2nc(C(C)(F)F)nc2n1 [DSM265] | antagonism | 1.46 | 1.34 | 1.30 | 1.24 | – | – | – | – | – | – | – | – | – | – | – | – | – | – | – |
| O=C1C(O)=C([C@H]2CC[C@H](c3ccc(Cl)cc3)CC2)C(=O)c2ccccc21 [ATQ, atovaquone] | – | 1.22 | 1.33 | 1.16 | 1.28 | Additive to antagonistic; also recorded: antagonism observed in asynchronous parasites and early rings was attenuated in trophozoites | 1.54 | 1.64 | 0.99 | 1.11 | 1.20 | 1.17 | 1.07 | 1.02 | – | – | – | – | – | – |
| CCN(CC)CCCC(C)Nc1ccnc2cc(Cl)ccc12 (stereo not drawn) [CQ, chloroquine] | – | 1.53 | 1.41 | 1.36 | 1.29 | Additive to antagonistic; also recorded: moderate to potent antagonism | 1.70 | 1.69 | 1.75 | 1.89 | 1.54 | 1.45 | 1.41 | 1.57 | – | – | – | – | – | – |
| c1cc([C@H]2CC[C@]3(CC2)OO[C@]2(O3)C3CC4CC(C3)CC2C4)ccc1OCCN1CCOCC1 [OZ439] | – | 1.10 | 1.21 | 0.76 | 0.85 | – | 0.79 | 0.65 | 0.67 | 0.64 | 0.40 | 0.35 | 0.51 | 0.48 | synergy | Synergy | – | – | – | – |
| CN(C)c1ccc2nc3ccc(=[N+](C)C)cc-3sc2c1 [MB, methylene blue] | – | 1.20 | 1.22 | 0.83 | 0.89 | – | 0.84 | 0.87 | – | – | 0.36 | 0.40 | 0.78 | 0.71 | synergy | – | – | synergy with WLL was limited to the early ring stage | – | – |
| CC1(C)C(N(O)C(=O)Nc2ccc(Cl)cc2)N(c2ccc(Cl)cc2)C(=O)N1CC(=O)N/N=C/C=C/c1ccc([N+](=O)[O-])o1 (stereo not drawn) [ESI, eeyarestatin I] | – | 1.29 | 1.28 | 0.97 | 0.98 | – | 1.09 | 1.05 | 1.05 | 1.19 | 0.80 | 0.73 | 1.08 | 0.97 | – | – | – | largely additive | additive | Mild synergy |
| O=C(O)CCc1cccc2c1B(O)OC2 [AN3661] | antagonism | 1.58 | 1.69 | 1.63 | 1.64 | – | – | – | – | – | – | – | – | – | – | – | – | – | – | – |
| O=C(CC1NCCCC1O)Cn1cnc2cc(Br)c(Cl)cc2c1=O (stereo not drawn) [HFG, halofuginone] | antagonism | 1.46 | 1.47 | 1.53 | 1.42 | – | – | – | – | – | – | – | – | – | – | – | – | – | – | – |
